Experimental data: patent US20050148631A1, “Amino heterocyclyl inhibitors of 11-beta-hydroxy steroid dehydrogenase type 1” (AGOURON PHARMACEUTICALS, INC., priority 2003, published 2005)
Read-outs that look alike come from different tables or passages of the source.

Assays:
[1] = test system: healthy human volunteers; conditions: cited from earlier work
[2] = test system: normal subjects; conditions: ingestion; cited from earlier work
[3] = target: T1, 11β-hsd-1 enzyme (Homo sapiens, UniProt P28845); experiment: 11β-hsd-1 enzyme assay, Kiapp determination (3H-cortisone to cortisol, radio-HPLC); assay type: biochemical; conditions: read-out: Ki app
T1 sequence (P28845 whole entry, species assumed): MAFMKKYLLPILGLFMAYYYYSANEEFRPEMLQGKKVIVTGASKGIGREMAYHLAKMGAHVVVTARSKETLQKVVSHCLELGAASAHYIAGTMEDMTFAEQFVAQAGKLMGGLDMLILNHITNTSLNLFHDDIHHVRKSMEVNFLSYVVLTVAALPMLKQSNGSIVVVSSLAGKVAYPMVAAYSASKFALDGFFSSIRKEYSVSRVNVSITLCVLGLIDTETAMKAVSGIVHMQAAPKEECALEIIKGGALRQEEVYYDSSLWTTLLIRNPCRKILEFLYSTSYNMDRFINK

[4] = target: T1, 11β-hsd-1 enzyme; experiment: 11β-hsd-1 enzyme assay, percentage of inhibition (3H-cortisone to cortisol, radio-HPLC); assay type: biochemical; conditions: read-out: % inh @ 0.1 uM

SMILES | Ki ([3]; apparent Ki, 11β-hsd-1 enzyme) [µM] | inhibition at 0.1 µM ([4]; compound at 0.1 uM) [%] | Ki [3] [µM] | inhibition at 0.1 µM ([4]; 0.1 uM) [%] | other results
CC1(C)[C@@H](OC(=O)CCC(=O)O)CC[C@]2(C)[C@H]3C(=O)C=C4[C@@H]5C[C@@](C)(C(=O)O)CC[C@]5(C)CC[C@@]4(C)[C@]3(C)CC[C@@H]12 [carbenoxolone] | – | – | – | – | hepatic insulin sensitivity [1]: improved; reduction of intraocular pressure [2]: 20%
Cc1cccc(NS(=O)(=O)c2ccc(-c3ccc(Cl)cc3)c(C)c2)n1 [Example 217] | 0.005 | 95 | – | – | –
Cc1cccc(NS(=O)(=O)c2ccc(-c3ccc(CO)cc3)cc2C)n1 [Example 180] | – | – | 0.075 | 65 | –
Cc1cccc(NS(=O)(=O)c2ccc3ccccc3c2)n1 [Example 37] | – | – | 0.084 | 45 | –
N#Cc1ccc(-c2ccc(S(=O)(=O)Nc3cccc(CCO)n3)cc2)cc1 [Example 117] | – | – | 0.0262 | 84.8 | –
Cc1cccc(NS(=O)(=O)c2ccc(-c3ccccc3)cc2C)n1 [Example 166] | – | – | 0.012 | 95 | –
Cc1cccc(NS(=O)(=O)c2ccc(-c3ccc(C#N)cc3)c(F)c2)n1 [Example 284, 4′-Cyano-2-fluoro-biphenyl-4-sulfonic acid (6-methyl-pyridin-2-yl)-amide] | 0.0034 | 100 | – | – | –
COc1ccc(NS(=O)(=O)c2sc3ccc(Cl)cc3c2C)nn1 [Example 68] | – | – | 0.0083 | 100 | –
Cc1cccc(NS(=O)(=O)c2ccc(-c3ccc(F)c(C)c3)cc2C)n1 [Example 183] | – | – | 0.014 | 91 | –
Cc1cccc(NS(=O)(=O)c2ccc(-c3ccccc3C)cc2C)n1 [Example 172] | – | – | 0.048 | 82 | –
Nc1cccc(NS(=O)(=O)c2ccc(-c3ccc(Cl)cc3)cc2)n1 [Example 42] | – | – | 0.0046 | 96 | –
CCOc1ccccc1-c1ccc(S(=O)(=O)Nc2cccc(C)n2)cc1C [Example 232] | 0.66 | 78 | – | – | –
COc1ccc(-c2ccc(S(=O)(=O)Nc3cccc(C)n3)c(C)c2)cc1F [Example 187] | – | – | 0.0095 | 93 | –
Cc1cccc(NS(=O)(=O)c2ccc(-c3ccc(F)cc3)nc2)n1 [Example 268] | 0.04 | 70 | – | – | –
Cc1cccc(NS(=O)(=O)c2ccc(-c3ccccc3Cl)c(C)c2)n1 [Example 212] | 0.047 | 75 | – | – | –
COc1ccc(-c2ccc(S(=O)(=O)Nc3cccc(C)n3)cc2C)cc1 [Example 216] | 0.043 | 73 | – | – | –
Cc1cccc(NS(=O)(=O)c2ccc(-c3cccc(F)c3)cc2C)n1 [Example 173] | – | – | 0.0096 | 97 | –

SMILES | Ki ([3]; apparent Ki, 11β-hsd-1 enzyme) [µM] | inhibition at 0.1 µM ([4]; compound at 0.1 uM) [%] | Ki [3] [µM] | inhibition at 0.1 µM ([4]; 0.1 uM) [%] | other results
Cc1cc(C)nc(NS(=O)(=O)N2CCC(c3ccc(C#N)cc3)CC2)c1 [Example 311] | 0.0026 | 100 | – | – | –
N#Cc1ccc(C2CCN(S(=O)(=O)Nc3ccc4ccccc4n3)CC2)cc1 [Example 308] | < 0.001 | 95.7 | – | – | –
N#Cc1ccc(-c2ccc(S(=O)(=O)Nc3cccc(C4CC4)n3)cn2)cc1 [Example 293, 6-(4-Cyano-phenyl)-pyridine-3-sulfonic acid (6-cyclopropyl-pyridin-2-yl)-amide] | 0.0064 | 100 | – | – | –
Nc1cccc(NS(=O)(=O)c2ccc(C(F)(F)F)cc2)n1 [Example 39] | – | – | 0.009 | 96 | –
CCc1cccc(NS(=O)(=O)c2sc3ccc(Cl)cc3c2C)n1 [Example 69] | – | – | 0.0011 | 100 | –
Cc1cccc(NS(=O)(=O)c2ccc(-c3cccc(C#N)c3)cc2C)n1 [Example 177] | – | – | 0.02 | 85 | –
CCS(=O)(=O)c1ccc(-c2ccc(S(=O)(=O)Nc3cccc(C)n3)c(C)c2)cc1 [Example 203] | 0.019 | 86 | – | – | –
CCc1ccccc1-c1ccc(S(=O)(=O)Nc2cccc(C)n2)c(C)c1 [Example 201] | 0.043 | 75 | – | – | –
CCOc1ccc(-c2ccc(S(=O)(=O)Nc3cccc(C)n3)c(C)c2)cc1 [Example 192] | – | – | 0.015 | 81 | –
Cc1cccc(NS(=O)(=O)c2sc3ccc(C#N)cc3c2C)n1 [Example 295, 5-Cyano-3-methyl-benzo[b]thiophene-2-sulfonic acid (6-methyl-pyridin-2-yl)-amide] | 0.0023 | 100 | – | – | –
CCCCc1ccc(-c2ccc(S(=O)(=O)Nc3cccc(C)n3)c(C)c2)cc1 [Example 209] | 0.018 | 88 | – | – | –
Cc1cccc(NS(=O)(=O)c2ccc(-c3ccc(CC(C)C)cc3)cc2C)n1 [Example 210] | 0.047 | 74 | – | – | –
N#Cc1ccc(-c2ccc(S(=O)(=O)Nc3ccc4occc4n3)cc2)cc1 [Example 86] | – | – | 0.0143 | 100 | –
Cc1cccc(NS(=O)(=O)c2ccc(-c3cccc(C)c3C)cc2C)n1 [Example 197] | 0.029 | 89 | – | – | –
Cc1cccc(NS(=O)(=O)c2cc3ccccc3s2)n1 [Example 72] | – | – | 0.0309 | 74.6 | –
Cc1cccc(NS(=O)(=O)c2ccc(-c3ccc(F)cc3F)cc2C)n1 [Example 179] | – | – | 0.0062 | 95 | –
CCc1cccc(NS(=O)(=O)N2CCc3ccccc3C2)n1 [Example 303] | 0.0076 | 89.3 | – | – | –

Continued, in another order:

Ki ([3]; apparent Ki, 11β-hsd-1 enzyme) [µM] | inhibition at 0.1 µM ([4]; compound at 0.1 uM) [%] | Ki [3] [µM] | inhibition at 0.1 µM ([4]; 0.1 uM) [%] | SMILES | other results
0.0045 | 100 | – | – | Cc1cccc(NS(=O)(=O)c2ccc(-c3ccc(F)cc3)cc2C)n1 [Example 279] | –
– | – | < 0.001 | 100 | Cc1cccc(NS(=O)(=O)c2ccc3c(Cl)cccc3c2)n1 [Example 102] | –
0.014 | 88 | – | – | Cc1cccc(NS(=O)(=O)c2ccc(-c3cc(F)ccc3F)cc2C)n1 [Example 202] | –
0.0226 | 81.8 | – | – | Cc1cccc(NS(=O)(=O)c2ccc(-c3ccc(C#N)cc3)nc2)n1 [Example 267, 6-(4-Cyano-phenyl)-pyridine-3-sulfonic acid (6-methyl-pyridin-2-yl)-amide] | –
– | – | 0.0048 | 93.6 | Cc1c(S(=O)(=O)Nc2cccc(CCO)n2)sc2ccc(Cl)cc12 [Example 115, 5-Chloro-3-methyl-benzo[b]thiophene-2-sulfonic acid [6-(2-hydroxy-ethyl)-pyridin-2-yl]-amide] | –
– | – | 0.0019 | 100 | N#Cc1ccc(-c2ccc(S(=O)(=O)Nc3cccc(C4CC4)n3)cc2)cc1 [Example 112, 4′-Cyano-biphenyl-4-sulfonic acid (6-cyclopropyl-pyridin-2-yl)-amide] | –
0.0349 | 89.3 | – | – | COc1ccc(-c2ccc(S(=O)(=O)Nc3cccc(C)n3)cc2)cn1 [Example 256] | –
0.0035 | 94.4 | – | – | Cc1cccc(NS(=O)(=O)c2ccc(-c3ccc(C#N)c(Cl)c3)cc2)n1 [Example 274] | –
0.027 | 92.5 | – | – | O=S(=O)(Nc1ccc2ccccc2n1)c1ccc(-c2ccc(F)cc2)nc1 [Example 291] | –
– | – | 0.0247 | 84.8 | Cc1cccc(NS(=O)(=O)c2ccc(-c3cccc(F)c3)cc2)n1 [Example 133] | –
– | – | 0.035 | 78 | Cc1cccc(NS(=O)(=O)c2ccc(-c3ccc(C(C)C)cc3)cc2C)n1 [Example 190] | –
– | – | 0.042 | 72.3 | CCOC(=O)Cc1cccc(NS(=O)(=O)c2cccc(Cl)c2C)n1 [Example 1, Ethyl [6-(3-Chloro-2-methyl-benzenesulfonylamino)-pyridin-2-yl]-acetate] | –
– | – | < 0.001 | 100 | Cc1c(S(=O)(=O)Nc2cccc(N)n2)sc2ccc(Cl)cc12 [Example 107] | –
– | – | < 0.001 | 100 | Cc1cccc(NS(=O)(=O)c2sc3ccc(F)cc3c2C)n1 [Example 103] | –
– | – | 0.0032 | 98 | Cc1cccc(NS(=O)(=O)c2ccc(-c3cc(Cl)cc(Cl)c3)cc2C)n1 [Example 174] | –
– | – | 0.0028 | 96 | Cc1cccc(NS(=O)(=O)c2ccc(-c3ccc(Cl)cc3)cc2C)n1 [Example 168] | –
0.0076 | 90 | – | – | Cc1cccc(NS(=O)(=O)N2CCC(c3cccc(F)c3)CC2)n1 [Example 309] | –
0.031 | 77 | – | – | Cc1cccc(NS(=O)(=O)c2ccc(-c3cccc(Cl)c3)c(C)c2)n1 [Example 213] | –
0.067 | 67.4 | – | – | O=S(=O)(Nc1ccc2ccccc2n1)N1CCC(c2ccccn2)CC1 [Example 316] | –
0.0073 | 94.6 | – | – | O=S(=O)(Nc1cccc(C2CC2)n1)c1ccc(-c2ccc(C(F)(F)F)cc2)nc1 [Example 294] | –
– | – | 0.012 | 97 | Cc1cccc(NS(=O)(=O)c2ccc(-c3cc(F)c(F)c(F)c3)cc2C)n1 [Example 184] | –
0.012 | 100 | – | – | N#Cc1ccc(-c2ccc(S(=O)(=O)Nc3ccc4ccccc4n3)cn2)cc1 [Example 290, 6-(4-Cyano-phenyl)-pyridine-3-sulfonic acid quinolin-2-ylamide] | –
0.32 | 79 | – | – | Cc1cccc(NS(=O)(=O)c2ccc(-c3ccc(CO)cc3)c(C)c2)n1 [Example 223] | –
< 0.001 | 100 | – | – | Cc1cc(-c2ccc(S(=O)(=O)Nc3cccc(N)n3)cc2)ccc1C#N [Example 282, 4′-Cyano-3′-methyl-biphenyl-4-sulfonic acid (6-amino-pyridin-2-yl)-amide] | –
0.019 | 93 | – | – | Cc1cccc(NS(=O)(=O)c2ccc(-c3cccc(F)c3)c(C)c2)n1 [Example 224] | –
